Test results taken from patent US20240002393A1, “SUBSTITUTED BENZO[f][l ,2,4JTRIAZOL0[4,3-a][l ,4J[…] GABA A GAMMA! POSITIVE ALLOSTERIC MODULATORS” (Hoffmann-La Roche Inc., priority 2020, published 2024).

Columns and labels:
[1] = biological target: human GABAA α5β2γ1 receptor (Homo sapiens (Human), UniProt P31644+Q8N1C3); experiment: Radioligand binding assay, [3H]RO7239181 competition, γ1-containing GABAA subtypes; settings: HEK293F membranes, mean of two determinations
Procedure: The affinity of compounds at GABAA γ1 subunit-containing receptors was measured by competition for [^3H]RO7239181 (67.3 Ci/mmol; Roche) binding to membranes from HEK293F cells (ThermoFisher R79007) expressing human (transiently transfected) receptors of composition α5β2γ1, α2β2γ1, α1β2γ1. For better protein expression of the α2 subunit-containing receptors, the 28 amino acid long signal peptide (Met1 to Ala28) of the human GABAA α2 subunit was substituted by the 31 amino acid long signal peptide (Met1 to Ser31) of human GABAA α5 subunit.
(§1) Harvested pellets from HEK293F cells expressing the different GABAA receptor subtypes were resuspended in Mannitol Buffer pH 7.2-7.4 (Mannitol 0.29M, Triethylamine 10 mM, Acetic acid 10 mM, EDTA 1 mM plus protease inhibitors (20 tablets Complete, Roche Diagnostics Cat. No. 05 056 489 001 per liter)), washed two times and then resuspended at 1:10 to 1:15 dilution in the same buffer. Cell disruption was performed by stirring the suspension in a Parr vessel #4637 at 435 psi for 15 minutes, and then the suspensions were centrifuged at 1000×g for 15 minutes at 4° C. (Beckman Avanti J-HC; rotor JS)-4.2). The supernatant (S1) was transferred in a 21 Schott flask and the pellet (P1) was resuspended with Mannitol Buffer up to 175 ml. The resuspended pellet was transferred into a 250 ml Corning centrifugal beaker and centrifuged at 1500×g for 10 minutes at 4° C. (Beckman Avanti J-HC; rotor JS)-4.2). The supernatant (S1) was then transferred in the 21 Schott flask and the pellet was discarded. The supernatants (S1) were centrifuged in 500 ml Beckman polypropylene centrifugal beaker at 15,000×g for 30 minutes at 4° C. (Beckman Avanti J-20 XP; rotor JLA-10.500). The pellet (P2) was resuspended with Mannitol Buffer 1:1 and frozen at −80° C. The supernatant (S2) was centrifuged in 100 ml Beckman polypropylene centrifugal tubes at 48000×g for 50 minutes at […] (Beckman Avanti J-20 XP; rotor JA-18). The supernatant (S3) was discarded and the pellet (P3) was resuspended with 1:1 Mannitol Buffer. The P2 and P3 protein concentration was determined with the BIORAD Standard assay method with bovine serum albumin as standard and measured on the NANO-Drop 1000. The membrane suspension was aliquots (500 μl per tube) and stored at −80° C. until required.
(§2) Membrane homogenates were resuspended and polytronised (Polytron PT1200E Kinematica AG) in Potassium Phosphate 10 mM, KCl 100 mM binding buffer at pH 7.4 to a final assay concentration determined with a previous experiment.
Radioligand binding assays were carried out in a volume of 200 µL (96-well plates) which contained 100 μL of cell membranes, [^3H]RO7239181 at a concentration of 1.5 nM (α5β2γ1) or 20-30 nM (α1β2γ1, 2β2γ1) and the test compound in the range of [0.3-10000]×10^−9 M. Nonspecific binding was defined by 10×10^−6 (α5β2γ1) and 30×10^−6 M RO7235136 and typically represented less than 5% (α5β2γ1) and less than 20% (α1β2γ1, α2β2γ1) of the total binding. Assays were incubated to equilibrium for 1 hour at 4° C. and then, membranes were filtered onto unifilter (96-well white microplate with bonded GF/C filters preincubated 20-50 minutes in 0.3% Polyethylenimine) with a Filtermate 196 harvester (Packard BioScience) and washed 4 times with cold Potassium Phosphate 10 mM pH 7.4, KCl 100 mM binding buffer. After drying, filter-retained radioactivity was detected by liquid scintillation counting. K, values were calculated using Excel-Fit (Microsoft) and are the means of two determinations.
Representative test results, obtained by the above described assay measuring binding affinity to HEK293 cells expressing human (h) receptors, are shown in the Table 1.

[2] = biological target: human GABAA α1β2γ1 receptor (Homo sapiens (Human), UniProt P14867+Q8N1C3); experiment: as above; settings: HEK293F membranes, [3H]RO7239181 20-30 nM, mean of two determinations
Procedure: (§3) The affinity of compounds at GABAA γ1 subunit-containing receptors was measured by competition for [^3H]RO7239181 (67.3 Ci/mmol; Roche) binding to membranes from HEK293F cells (ThermoFisher R79007) expressing human (transiently transfected) receptors of composition α5β2γ1, α2β2γ1, α1β2γ1.
as §1, §2
(§4) Assays were incubated to equilibrium for 1 hour at 4° C. and then, membranes were filtered onto unifilter (96-well white microplate with bonded GF/C filters preincubated 20-50 minutes in 0.3% Polyethylenimine) with a Filtermate 196 harvester (Packard BioScience) and washed 4 times with cold Potassium Phosphate 10 mM pH 7.4, KCl 100 mM binding buffer. After drying, filter-retained radioactivity was detected by liquid scintillation counting. K, values were calculated using Excel-Fit (Microsoft) and are the means of two determinations.

[3] = biological target: human GABAA α2β2γ1 receptor (Homo sapiens (Human), UniProt P47869+Q8N1C3); experiment: as above; settings: for Ki: HEK293F membranes, [3H]RO7239181 20-30 nM, mean of two determinations, read-out: Ki h-GABAA α2β2γ1; for γ2/γ1 Selectivity Ratio: Ki α1β3γ2 (nM)/Ki α2β2γ1 (nM); for LogSel: Log[Ki α1β3γ2 (nM)/Ki α2β2γ1 (nM)]
Procedure: as §3, §1, §2, §4

[4] = biological target: human GABAA α1β3γ2 receptor (Homo sapiens (Human), UniProt P14867+P18507); experiment: Radioligand binding assay, [3H]Flumazenil competition, γ2-containing GABAA subtypes; settings: HEK293F membranes, [3H]Flumazenil 1 nM, mean of two determinations; read-out: Ki h-GABAA α1β3γ2
Procedure: The affinity of compounds at GABAA γ2 subunit-containing receptors was measured by competition for [^3H]Flumazenil (81.1 Ci/mmol; Roche) binding to HEK293F cells expressing human (transiently transfected) receptors of composition α1β3γ2.
Harvested pellets from HEK293F cells expressing the different GABAA γ2 receptor subtypes were resuspended in Mannitol Buffer pH 7.2-7.4 and processed as described above for the cells expressing the GABAA γ1 subunit-containing receptors.
Assays were incubated to equilibrium for 1 hour at 4° C. and harvested onto GF/C uni-filters (Packard) by filtration using a Packard harvester and washing with ice-cold wash buffer (50 mM Tris; pH 7.5). After drying, filter-retained radioactivity was detected by liquid scintillation counting. Ki values were calculated using Exel-Fit (Microsoft) and are the means of two determinations.

Compound | Ki [1] [nM] | Ki [2] [nM] | Ki [3] [nM] | γ2/γ1 Selectivity Ratio [3] | LogSel [3] | Ki [4] [nM]
C[C@@H]1N=C(c2c(F)cccc2F)c2c(ccc(Cl)c2Cl)-n2c1n[nH]c2=O [Example 64, (4S)-7,8-dichloro-6-(2,6-difluorophenyl)-4-methyl-2,4-dihydro-[1,2,4]triazolo[4,3-a][1,4]benzodiazepin-1-one] | 0.5 | 11.5 | 13.2 | 45.8 | 1.66 | 602
C[C@@H]1N=C(c2ncccc2F)c2c(ccc(Cl)c2Cl)-n2c(-c3ccncn3)nnc21 [Example 66, (4S)-7,8-dichloro-6-(3-fluoro-2-pyridyl)-4-methyl-1-pyrimidin-4-yl-4H-[1,2,4]triazolo[4,3-a][1,4]benzodiazepine] | 8 | 231 | 97.8 | 33.5 | 1.53 | 3280
C[C@@H]1N=C(c2ncccc2F)c2c(ccc(Cl)c2Cl)-n2c(-c3cnn(C)c3)nnc21 [Example 67, (4S)-7,8-dichloro-6-(3-fluoro-2-pyridyl)-4-methyl-1-(1-methylpyrazol-4-yl)-4H-[1,2,4]triazolo[4,3-a][1,4]benzodiazepine] | 3.2 | 188 | 26.5 | 53.5 | 1.73 | 1420
C[C@@H]1N=C(c2ncccc2F)c2c(ccc(Cl)c2Cl)-n2c(C3CC3)nnc21 [Example 68, (4S)-7,8-dichloro-1-cyclopropyl-6-(3-fluoro-2-pyridyl)-4-methyl-4H-[1,2,4]triazolo[4,3-a][1,4]benzodiazepine] | 7 | 359 | 38.8 | 27.4 | 1.44 | 1060
C[C@@H]1N=C(c2c(F)cccc2F)c2c(ccc(Cl)c2Br)-n2c(-c3cccnn3)nnc21 [Example 73, (4S)-7-bromo-8-chloro-6-(2,6-difluorophenyl)-4-methyl-1-(pyridazin-3-yl)-4H-benzo[f][1,2,4]triazolo[4,3-a][1,4]diazepine] | 2 | 23.5 | 8.8 | 87.5 | 1.94 | 768
C[C@@H]1N=C(c2c(F)cccc2F)c2c(ccc(Cl)c2Br)-n2c(-c3ccncn3)nnc21 [Example 74, (4S)-7-bromo-8-chloro-6-(2,6-difluorophenyl)-4-methyl-1-pyrimidin-4-yl-4H-[1,2,4]triazolo[4,3-a][1,4]benzodiazepine] | 2.6 | 28.3 | 17.3 | 107.6 | 2.03 | 1870
Cc1nnc2n1-c1ccc(Br)c(Cl)c1C(c1c(F)cccc1F)=N[C@H]2C [Example 75, (4S)-8-bromo-7-chloro-6-(2,6-difluorophenyl)-1,4-dimethyl-4H-[1,2,4]triazolo[4,3-a][1,4]benzodiazepine] | 0.8 | 8.3 | 5.3 | 38.0 | 1.58 | 202
C[C@@H]1N=C(c2c(F)cccc2F)c2c(ccc(Cl)c2Br)-n2c(-c3cnn(C)c3)nnc21 [Example 76, (4S)-7-bromo-8-chloro-6-(2,6-difluorophenyl)-4-methyl-1-(1-methylpyrazol-4-yl)-4H-[1,2,4]triazolo[4,3-a][1,4]benzodiazepine] | 3.6 | 44.6 | 24.9 | 21.3 | 1.33 | 530
Cc1nnc2n1-c1ccc(Cl)c(Br)c1C(c1c(F)cccc1F)=N[C@H]2C [Example 80, (4S)-7-bromo-8-chloro-6-(2,6-difluorophenyl)-1,4-dimethyl-4H-[1,2,4]triazolo[4,3-a][1,4]benzodiazepine] | 3 | 42.6 | 23.6 | 45.3 | 1.66 | 1070
C[C@@H]1N=C(c2c(F)cccc2F)c2c(ccc(Cl)c2Br)-n2c(-c3ccn(C)n3)nnc21 [Example 81, (4S)-7-bromo-8-chloro-6-(2,6-difluorophenyl)-4-methyl-1-(1-methylpyrazol-3-yl)-4H-[1,2,4]triazolo[4,3-a][1,4]benzodiazepine] | 4.3 | 101 | 36.3 | 43.0 | 1.63 | 1560
Cc1nnc2n1-c1ccc(Cl)c(Cl)c1C(c1c(F)cccc1F)=N[C@H]2C [Example 82, (4S)-7,8-dichloro-6-(2,6-difluorophenyl)-1,4-dimethyl-4H-[1,2,4]triazolo[4,3-a][1,4]benzodiazepine] | 0.6 | 12.8 | 10.6 | 24.6 | 1.39 | 261
C[C@@H]1N=C(c2ncccc2F)c2c(ccc(Br)c2Cl)-n2c(C3CC3)nnc21 [Example 83, (4S)-8-bromo-7-chloro-1-cyclopropyl-6-(3-fluoro-2-pyridyl)-4-methyl-4H-[1,2,4]triazolo[4,3-a][1,4]benzodiazepine] | 2.7 | 128 | 23.2 | 36.8 | 1.57 | 853
C[C@@H]1N=C(c2ncccc2F)c2c(ccc(Br)c2Cl)-n2cnnc21 [Example 84, (4S)-8-bromo-7-chloro-6-(3-fluoro-2-pyridyl)-4-methyl-4H-[1,2,4]triazolo[4,3-a][1,4]benzodiazepine] | 6.5 | 97.1 | 71.3 | 16.9 | 1.23 | 1210
